# Source: US20010044151A1, “Ligands for modulating the expression of exogenous genes via an ecdysone receptor complex” (priority 1998, published 2001)
# Columns and labels:
# [1] = biological target: CfEcR(CDEF)-GST and CfUSP-GST fusion proteins; assay: Competitive 3H-ponasterone A binding assay, bacterial GST fusion proteins; parameters: species or system Choristoneura fumiferana; details: bacterial CfEcR(CDEF)-GST/CfUSP-GST extracts, 3H-ponasterone A displacement
# Text: Bacterial glutathion-S-transferase (GST) fusion proteins of the spruce budworm (Choristoneura fumiferana) EcR (CfEcR), containing CDEF domains only, and ultraspiracle protein (CfUSP) were also used in radioligand displacement assays. cDNA encoding the CDEF domains of CfEcR were constructed following PCR amplification using primers that contain BamH1 and EcoRI sites (Perera S C, M Sundaram, Krell P J, Retnakaran A, Dhadialla T S, S R Palli, 1999 Arch. Insect Biochem. Physiol. 41 In Press). The PCR produce was digested with BamHI and EcoRI and cloned into pGEX-3X vector obtained from Pharmacia Biotech. CfUSP coding region was amplified using primers that contain BamH1 and EcoRI sites and cloned into to pGEX-2T vector obtained from Pharmacia Biotech. E. coli transformed with each of the two vectors were grown and induced to produce the fusion proteins as detailed in the Pharmacia Biotech GST-technical bulletin.
# The concentrations of competitors that inhibited 50% of tritiated ponasterone A binding (IC50) was determined by incubating Kc or Plodia nuclear extracts or extracts of bacteria producing CfEcR(CDEF)-GST and CfUSP-GST fusions proteins with ^3H-ponasterone A (66,000 dpm per reaction) in the presence of a range of concentrations (0.1 nM to 10 μM) of test compounds. In the case of binding reactions using bacterial fusion proteins, 20 or one μl extract of bacteria producing CfEcR(CDEF)-GST or CfUSP-GST fusion proteins, respectively, were included per binding reaction. The assay conditions and determination of total and non-specific binding was as described above. The volume of competitor in solvent, like that for 20E or solvent alone, was kept at 1% of total reaction volume by using a 100 fold concentrated stock solution (i.e. a 100 fold dilution of stock solutions). The remainder of the assay was as described above. Each reaction was carried out in duplicate per concentration per test compound. […]
# Spodoptera exigua = assay: Translaminar movement into cotton leaves, mortality of neonate beet armyworm larvae; type: in vivo; details: versus CE-1
# Method: A study was conducted to evaluate translaminar movement of two compounds into cotton leaves using neonate beet armyworm larvae, Spodoptera exigua, as the model system.
# Two treatments were evaluated: emulsifiable concentrates of CE-1 and Ligand 3 (5% and 19%, respectively), at a concentration of 100 μg/ml to simulate spray tank concentrations. These treatments were then compared with plants treated with a chemical standard known to have excellent translaminar movement (emamectin benzoate, 0.16% EC [20 μg/ml], Merck & Co.) and with nontreated plants.
# Four-week-old cotton, Gossypium hirsutum L. ev. Stoneville, plants were treated with each treatment by painting the top surface of a single replicate leaf/plant with a corresponding treatment. Plants were held in a controlled environment glasshouse maintained at 27° C. until needed. Residual effectiveness was evaluated by challenging treated and nontreated foliage with neonate beet armyworm larvae, Spodoptera exigua (Hubner), on 3 dates: 1, 7 and 14 days after treatment (DAT). On each sample date, the single treated leaf/plant was excised from each of five replicate plants per treatment. […] Mortality of larvae was recorded 4 days after infestation. […]
# Percentage mortality data were transformed to the arcsine of the square-root and then analyzed by ANOVA using JMP (Ver. 3.2.1). […]
smiles,measurement,setting,value
COc1cccc(C(=O)NN(C(=O)c2cc(C)cc(C)c2)C(C)(C)C)c1C [Ligand 3],Bacterial CfECR log(1/IC50),[1],8.76
same,Effectiveness at killing S. exigua larvae from translaminar movement (comparison in words),Spodoptera exigua,significantly more effective than CE-1
